{"source": "paper PMC7216583", "about": "(Parasites & Vectors, 2020)", "key": {"[1]": {"system": "Abl", "design": "method as in S-inhibitor", "conditions": "ref S-inhibitor; read-out: IC50, c-Abl; cited from earlier work"}, "[2]": {"system": "c-Raf", "design": "method as in S-inhibitor", "conditions": "ref S-inhibitor; cited from earlier work"}, "[3]": {"system": "VEGFR2", "design": "method as in S-inhibitor", "conditions": "ref S-inhibitor; cited from earlier work"}, "[4]": {"system": "Src", "design": "method as in S-inhibitor", "conditions": "ref S-inhibitor; cited from earlier work"}, "[5]": {"system": "EphB4", "design": "method as in S-inhibitor", "conditions": "ref S-inhibitor; cited from earlier work"}, "[6]": {"system": "Toxoplasma gondii RH-2F tachyzoites", "experiment": "microbe, parasite or virus in culture", "conditions": "72 h"}, "[7]": {"system": "mTORC1", "design": "method as in S-inhibitor catalog", "conditions": "vendor brief description; ref S-inhibitor catalog; cited from earlier work"}, "[8]": {"system": "mTORC2", "design": "method as in S-inhibitor catalog", "conditions": "vendor brief description; ref S-inhibitor catalog; cited from earlier work"}, "[9]": {"system": "p110δ", "design": "method as in S-inhibitor", "conditions": "ref S-inhibitor; cited from earlier work"}, "[10]": {"system": "p110γ", "design": "method as in S-inhibitor", "conditions": "ref S-inhibitor; cited from earlier work"}, "[11]": {"system": "p110β", "design": "method as in S-inhibitor", "conditions": "ref S-inhibitor; cited from earlier work"}, "[12]": {"system": "p110α", "design": "method as in S-inhibitor", "conditions": "ref S-inhibitor; cited from earlier work"}, "[13]": {"system": "α7 nAChR", "design": "method as in S-inhibitor catalog", "conditions": "in α7*-expressing SH-EP1 cells; vendor brief description; ref S-inhibitor catalog; read-out: EC50, α7 nAChR positive allosteric modulation; cited from earlier work"}, "[14]": {"system": "bFGF", "design": "method as in S-inhibitor catalog", "conditions": "vendor brief description; ref S-inhibitor catalog; cited from earlier work"}, "[15]": {"system": "VEGF-A", "design": "method as in S-inhibitor catalog", "conditions": "vendor brief description; ref S-inhibitor catalog; cited from earlier work"}, "[16]": {"system": "Syk", "design": "method as in S-inhibitor catalog", "conditions": "vendor brief description; ref S-inhibitor catalog; cited from earlier work"}, "[17]": {"system": "P388", "design": "method as in S-inhibitor", "conditions": "ref S-inhibitor; read-out: IC50, P388 cell line; cited from earlier work"}, "[18]": {"system": "MX1", "design": "method as in S-inhibitor", "conditions": "ref S-inhibitor; read-out: IC50, MX1 cell line; cited from earlier work"}, "[19]": {"system": "SKOV3", "design": "method as in S-inhibitor", "conditions": "ref S-inhibitor; read-out: IC50, SKOV3 cell line; cited from earlier work"}, "[20]": {"system": "Colo205", "design": "method as in S-inhibitor", "conditions": "ref S-inhibitor; read-out: IC50, Colo205 cell line; cited from earlier work"}, "[21]": {"system": "MV522", "design": "method as in S-inhibitor", "conditions": "ref S-inhibitor; read-out: IC50, MV522 cell line; cited from earlier work"}, "[22]": {"system": "ALK5", "conditions": "read-out: IC50, ALK5; ref S-inhibitor; cited from earlier work"}, "[23]": {"system": "ALK4", "design": "method as in S-inhibitor", "conditions": "ref S-inhibitor; cited from earlier work"}, "[24]": {"system": "PDGFRβ", "design": "method as in S-inhibitor catalog", "conditions": "vendor brief description; ref S-inhibitor catalog; cited from earlier work"}, "[25]": {"system": "VEGFR2", "design": "method as in S-inhibitor catalog", "conditions": "vendor brief description; ref S-inhibitor catalog; cited from earlier work"}, "[26]": {"system": "c-Kit", "design": "method as in S-inhibitor catalog", "conditions": "vendor brief description; ref S-inhibitor catalog; cited from earlier work"}, "[27]": {"system": "VEGFR3", "design": "method as in S-inhibitor catalog", "conditions": "vendor brief description; ref S-inhibitor catalog; cited from earlier work"}, "[28]": {"system": "AVP-induced platelet aggregation", "design": "method as in S-inhibitor catalog", "conditions": "vendor brief description; ref S-inhibitor catalog; read-out: IC50, inhibition of AVP-induced platelet aggregation; cited from earlier work"}, "[29]": {"system": "FAAH", "design": "method as in S-inhibitor catalog", "conditions": "vendor brief description; ref S-inhibitor catalog; cited from earlier work"}, "[30]": {"system": "Bcr/Abl", "design": "method as in S-inhibitor catalog", "conditions": "vendor brief description; ref S-inhibitor catalog; cited from earlier work"}, "[31]": {"conditions": "read-out: Parasite inhibition (%) mean, preliminary screen, mean"}, "[32]": {"conditions": "read-out: Parasite inhibition (%) mean, preliminary screen of compound library, mean"}}, "note": "Where two headings read alike, the source gives them in different places."}
{"smiles": "Cc1ccc(C(=O)Nc2cccc(C(F)(F)F)c2)cc1Nc1nc(-c2cccnc2)nc2c1cnn2C", "note": "[NVP-BHG712]", "values": [{"measurement": "IC50", "setting": "[1]", "value": 1670, "unit": "nM"}, {"measurement": "IC50", "setting": "[2]", "value": 395, "unit": "nM"}, {"measurement": "ED50, VEGFR2", "setting": "[3]", "value": 4200, "unit": "nM"}, {"measurement": "IC50", "setting": "[4]", "value": 1270, "unit": "nM"}, {"measurement": "ED50, EphB4", "setting": "[5]", "value": 25, "unit": "nM"}, {"measurement": "inhibition of growth at 5 µM", "setting": "[6]; [31]", "value": -3.3, "unit": "%"}]}
{"smiles": "COc1cccc2cc(-c3nc([C@H]4CC[C@H](C(=O)O)CC4)n4ncnc(N)c34)[nH]c12", "note": "[OSI-027]", "values": [{"measurement": "IC50", "setting": "[7]", "value": 22, "unit": "nM"}, {"measurement": "IC50", "setting": "[8]", "value": 65, "unit": "nM"}, {"measurement": "inhibition of growth at 5 µM", "setting": "[6]; [32]", "value": 31, "unit": "%"}]}
{"smiles": "Cc1ccccc1-n1c(Cn2ncc3c(N)ncnc32)nc2cccc(C)c2c1=O", "note": "[PIK-293]", "values": [{"measurement": "IC50", "setting": "[9]", "value": 240, "unit": "nM"}, {"measurement": "IC50", "setting": "[10]", "value": 10000, "unit": "nM"}, {"measurement": "IC50", "setting": "[11]", "value": 25000, "unit": "nM"}, {"measurement": "inhibition of growth at 5 µM", "setting": "[6]; [31]", "value": 1.1, "unit": "%"}, {"measurement": "IC50", "setting": "[12]", "value": 100000, "unit": "nM"}]}
{"smiles": "COc1cc(OC)c(NC(=O)Nc2cc(C)on2)cc1Cl", "note": "[PNU-120596]", "values": [{"measurement": "EC50", "setting": "[13]", "value": 216, "unit": "nM"}, {"measurement": "inhibition of growth at 5 µM", "setting": "[6]; [32]", "value": -38.8, "unit": "%"}]}
{"smiles": "COc1ccc(COc2cc3oc(=O)c4cc(C(C)O)ccc4c3cc2OC)cc1", "note": "(centres unmarked) [Palomid 529]", "values": [{"measurement": "IC50", "setting": "[14]", "value": 30, "unit": "nM"}, {"measurement": "IC50", "setting": "[15]", "value": 10, "unit": "nM"}, {"measurement": "inhibition of growth at 5 µM", "setting": "[6]; [32]", "value": -14.6, "unit": "%"}]}
{"smiles": "COc1cc(Nc2ncc(F)c(Nc3ccc4c(n3)N(COP(=O)(O)O)C(=O)C(C)(C)O4)n2)cc(OC)c1OC", "note": "[R788 (Fostamatinib)]", "values": [{"measurement": "IC50", "setting": "[16]", "value": "[…]"}, {"measurement": "inhibition of growth at 5 µM", "setting": "[6]; [32]", "value": 27.4, "unit": "%"}]}
{"smiles": "Cc1ccc(C(=O)N(CCCN)[C@@H](c2oc3cc(Cl)ccc3c(=O)c2Cc2ccccc2)C(C)C)cc1", "note": "[SB 743921]", "values": [{"measurement": "IC50", "setting": "[17]", "value": 14.4, "unit": "nM"}, {"measurement": "IC50", "setting": "[18]", "value": 0.06, "unit": "nM"}, {"measurement": "IC50", "setting": "[19]", "value": 0.2, "unit": "nM"}, {"measurement": "IC50", "setting": "[20]", "value": 0.07, "unit": "nM"}, {"measurement": "inhibition of growth at 5 µM", "setting": "[6]; [31]", "value": 0.5, "unit": "%"}, {"measurement": "IC50", "setting": "[21]", "value": 1.7, "unit": "nM"}]}
{"smiles": "Cc1cccc(-c2[nH]c(C(C)(C)C)nc2-c2ccc3c(c2)OCO3)n1", "note": "[SB-505124]", "values": [{"measurement": "IC50", "setting": "[22]", "value": 47, "unit": "nM"}, {"measurement": "IC50", "setting": "[23]", "value": 129, "unit": "nM"}, {"measurement": "inhibition of growth at 5 µM", "setting": "[6]; [31]", "value": -14.8, "unit": "%"}]}
{"smiles": "CNC(=O)c1cc(COc2nnc(Nc3ccc(Cl)cc3)c3ccoc23)ccn1", "note": "[Telatinib (BAY 57-9352)]", "values": [{"measurement": "IC50", "setting": "[24]", "value": 15, "unit": "nM"}, {"measurement": "IC50", "setting": "[25]", "value": 6, "unit": "nM"}, {"measurement": "IC50", "setting": "[26]", "value": 1, "unit": "nM"}, {"measurement": "inhibition of growth at 5 µM", "setting": "[6]; [32]", "value": -15.6, "unit": "%"}, {"measurement": "IC50", "setting": "[27]", "value": 4, "unit": "nM"}]}
{"smiles": "Cc1ccccc1C(=O)Nc1ccc(C(=O)N2CCCC(O)c3cc(Cl)ccc32)c(C)c1", "note": "(centres unmarked) [Tolvaptan (OPC-41061)]", "values": [{"measurement": "IC50", "setting": "[28]", "value": 1280, "unit": "nM"}, {"measurement": "inhibition of growth at 5 µM", "setting": "[6]; [32]", "value": -4.3, "unit": "%"}]}
{"smiles": "NC(=O)c1cccc(-c2cccc(OC(=O)NC3CCCCC3)c2)c1", "note": "[URB597]", "values": [{"measurement": "IC50", "setting": "[29]", "value": 4.6, "unit": "nM"}, {"measurement": "inhibition of growth at 5 µM", "setting": "[6]; [32]", "value": 2.1, "unit": "%"}]}
{"smiles": "CCC[C@H](NC(=O)/C(C#N)=C/c1cccc(Br)n1)c1ccccc1", "note": "[WP1130]", "values": [{"measurement": "IC50", "setting": "[30]", "value": 1800, "unit": "nM"}, {"measurement": "inhibition of growth at 5 µM", "setting": "[6]; [32]", "value": 1.7, "unit": "%"}]}
